Laboratory results published in article PMC6584507 (Scientific Reports, 2019).
In brackets after ≈: the same amount, converted by molar mass.

How the values were obtained:
[1] = biological target: T1, FLAG-tagged hTSLP bound to His-tagged hTSLPR (Homo sapiens, UniProt Q969D9); test: Pull-down assay, His-tagged hTSLPR and FLAG-tagged hTSLP, Western blotting; type: binding; conditions: compound at 0, 10, 50 and 100 μM
T1 construct: human TSLP28–159 with thrombin cleavage site at C-terminus; thrombin cleavage site (C); 8xHis (from vector pAB-bee-8xHis) (C, cleaved yes); made in house; host or cells: Trichoplusia ni High-Five cells, baculovirus (secreted)

[2] = tested on: STAT5 phosphorylation in hTSLP-stimulated HMC-1 cells; test: STAT5 assay (STAT5 phosphorylation, flow cytometry); type: cell-based, human
Description: (§1) HMC-1 cells were obtained from the Department of Food Technology and Inflammatory Disease Research Center (Hoseo University, Asan, Chungnam, Korea). Cells were cultured in Iscove’s modified Dulbecco’s medium (IMDM; Hyclone Laboratories Inc, USA) supplemented with 10% FBS and 1% Penicillin-streptomycin (PS; Gibco Industries Inc, USA) and incubated at 37 °C under humidified atmosphere of 95% air and 5% CO2. Recombinant hTSLP was purchased from R&D Systems (Minneapolis, USA).
Intracellular phospho-STAT5 (pSTAT5) staining method was based on the protocol obtained from the laboratory of Susan Kaech, Department of Immunobiology, Yale University School of Medicine (New Haven, Connecticut, USA). Briefly, HMC-1 cells were seeded in 96-well U-bottom plate at a density of 1 × 10^7 cells/mL and stimulated with 100 ng/mL recombinant hTSLP alone or with 1 for 30 min. After stimulation, cells were fixed with BD Cytofix/Cytoperm (BD Biosciences, USA) solution for 10 min. Fixed cells were then permeabilized with ice-cold methanol for 30 min, and intracellular pSTAT5 was stained with Alexa Fluor 647 mouse anti-STAT5 (pY694; BD Biosciences, USA) (1:10 dilution in FACS buffer) for 30 min. Stained cells were further fixed with BD Cytofix/Cytoperm solution for 10 min and re-suspended in FACS buffer for flow cytometry analysis. Cells were analyzed by a BD LSR Fortessa Flow cytometry (BD Biosciences, USA). FACS data were analyzed using FlowJo software Ver 9. 7. 6 (Tree Star Inc., USA).

[3] = tested on: pSTAT5 in TSLP-stimulated HMC-1 cells; test: Western blot analysis of STAT5 phosphorylation; type: cell-based, human; conditions: HMC-1 cells pretreated, TSLP 20 ng/mL for 2 h
Description: as §1
[…] Activated cells were lysed and separated by 10% sodium dodecyl sulfate-polyacrylamide gel electrophoresis (SDS-PAGE). After electrophoresis, proteins were transferred to nitrocellulose membranes. The membranes were blocked, incubated with primary antibodies (1:700 dilution in PBS with 0.05% Tween-20), and developed using peroxidase-conjugated secondary antibodies (1:3000 dilution in PBS with 0.05% Tween-20). Proteins were visualized by enhanced chemiluminescence (Amersham Bioseciences, Piscataway, NJ, USA) according to the manufacturer’s instructions.

[4] = Kinetic aqueous solubility; type: physicochemical; conditions: 0.1 M potassium phosphate buffer, kinetic from dmso stock, PBS / phosphate buffer pH 7.4
Description: In brief, 10 mM stock solution of tested compounds was prepared in DMSO. 25 μL of the stock solution was added to a 1-mL uniprep vial containing 475 μL of 0.1 M potassium phosphate buffer (pH 7.4), and was shaken at 800 rpm for 90 min at room temperature. Following shaking, the mixture was filtered by slowly pressing the upper tube of the 1 mL Mini-Uniprep^TM filter (PTFE membrane, 0.45 μm). 250 μL of the filtrate solution was then transferred to a HPLC vial containing equal volume of acetonitrile.

HDM-challenged mice = test: HDM-induced mouse model of allergic airway inflammation; type: in vivo; conditions: 1 (200 μg/mL) on day 4, 6 and 8; analysis on day 11
Description: Approximately 1 × 10^6 CD4 T cells from DO11.10 mice were transferred to naïve BALB/c mice intravenously. The following day, mice were challenged with a mixture of HDM (50 μg of Dermatophagoides farinae and Dermatophagoides pteronyssinus each; Greer Laboratories, Inc., USA) and 100 μg of OVA (Sigma-Aldrich Co., USA) for three days via the intranasal route. Mice were treated with 1 (200 μg) or PBS intraperitoneally three times every other day starting from […] post-challenge based on previous report. Allergen-challenged mice were sacrificed on day 11 post-challenge. […] The total cell number was counted using a hemocytometer. Leukocytes were transferred to glass slides by Cytospin (Thermo Scientific, USA) at 2,800 rpm for 5 min, and stained with Diff-Quick staining (Sysmex Corporation, Japan). Flow cytometry analysis: […] Cells were stained with anti-CD4 FITC (RM4-5, Biolegend Inc., USA), anti-CD127 PE/Cy7 (A7R34, Biolegend Inc., USA), anti-CD62L APC/Cy7 (MEL14, Biolegend Inc., USA), anti-CD27 PE (LG.7F9, eBioscience Inc., USA), and anti-DO11.10APC (KJ1-26, eBioscience Inc., USA) antibodies for 30 min. Stained cells were examined by flow cytometry using LSR Fortessa ^TM. Data were analyzed using FlowJo software Ver 9.7.6.

[5] = tested on: OVA-sensitized and challenged mice; test: OVA-induced mouse model of allergic airway inflammation; type: in vivo
Description: Sensitization and airway challenge: For initial sensitization, BALB/c mice were administered intraperitoneally on day 0 with 20 μg of OVA emulsified in 200 μL of sterile PBS containing 1 mg of aluminum hydroxide adjuvant (Imject® Alum, Thermofisher, Korea). On day 14, the mice were boosted with the same allergen by IP injection. […] The mice were sacrificed at the indicated time points and BAL was performed. […] The control group received vehicle only. BAL: Immediately after sacrifice, lungs were lavaged as described above. Total leukocyte numbers were counted. Differential cell counts were performed by counting at least 200 cells on cytocentrifuged samples stained with Diff-Quick solution.

hTSLP = biological target: T2, hTSLP (Homo sapiens, UniProt Q969D9); test: 1D and CPMG relaxation-edited NMR ligand binding; conditions: 1 at 100 μM, PBS buffer condition
T2 construct: human TSLP28–159 with thrombin cleavage site at C-terminus; thrombin cleavage site (C); 8xHis (from vector pAB-bee-8xHis) (C, cleaved yes); made in house; host or cells: Trichoplusia ni High-Five cells, baculovirus (secreted)

carbonic anhydrase = test: 1D and CPMG relaxation-edited NMR ligand binding; conditions: 1 at 100 μM, 2.5 μM carbonic anhydrase
Description: (§2) All spectra were measured at 283, 291, and 298 K. Data processing and analysis were conducted using TopSpin 3.1 program (Bruker, Germany). One-dimensional (1D) relaxation-edited experiments were performed using the method previously described by Hadjuk et al.[23]. We used CPMG pulse train with a pre-acquisition delay of 1.8 s, a 2 ms delay for dephasing and rephrasing in spin echo, and a total spin-lock time of 400 ms. The data were collected using a spectral width of 9,615 Hz and 128 scans.

hTSLPR = biological target: T3, hTSLPR (Homo sapiens, UniProt Q9HC73); test: 1D and CPMG relaxation-edited NMR ligand binding; conditions: 1 at 100 μM, 2.5 μM hTSLPR
T3 construct: human TSLPR26–217 with C-terminal octa-histidine tag (hTSLPR-His); 8xHis (C); made in house; host or cells: Trichoplusia ni High-Five cells, baculovirus (secreted)
T3 sequence (Q9HC73 26-217): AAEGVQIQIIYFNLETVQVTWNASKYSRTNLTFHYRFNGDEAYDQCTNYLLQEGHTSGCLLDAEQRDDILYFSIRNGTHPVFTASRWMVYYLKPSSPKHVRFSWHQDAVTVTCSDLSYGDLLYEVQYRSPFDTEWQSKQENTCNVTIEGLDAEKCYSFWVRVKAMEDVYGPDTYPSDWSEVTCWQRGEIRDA
Description: as §2

[6] = tested on: ovalbumin (OVA)-treated mice; conditions: cited from earlier work
[7] = tested on: house dust mite (HDM)-challenged mice; conditions: cited from earlier work

T1 sequence (Q969D9 28-159): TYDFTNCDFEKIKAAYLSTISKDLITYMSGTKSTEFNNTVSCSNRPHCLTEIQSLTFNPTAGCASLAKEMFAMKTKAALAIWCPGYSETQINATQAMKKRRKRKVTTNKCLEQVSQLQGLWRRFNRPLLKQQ
T2 sequence (Q969D9 28-159): as above

O=c1cc(-c2ccccc2)oc2cc(O)c(O)c(O)c12 [Compound 1, baicalein]
amount of FLAG-tagged hTSLP bound to His-tagged hTSLPR [1]: reduced in a dose-dependent manner
STAT5 phosphorylation % ([2]; 3 µM): 65.7%
STAT5 phosphorylation % ([2]; 10 μM): 61.6%
hTSLP inhibitory activity in the in vitro STAT5 assay (in words) ([2]; HMC-1 cells, hTSLP 100 ng/mL, 30 min, compound 1 at 3 or 10 μM): inhibited
inhibition of STAT5 phosphorylation, Western blot (in words) [3]: dose-dependent inhibition
solubility kinetic at 90 min [4]: 62 µM (≈ 16.8 µg/mL)
number of allergen-specific T cells (HDM-challenged mice): not changed
number of eosinophils in BALF vs PBS-treated control (HDM-challenged mice): substantially reduced
total number of leukocytes in BALF vs PBS control (HDM-challenged mice): comparable
number of eosinophils recruited to the airways ([5]; 100 mg/kg IP, BALF 48 h): significantly reduced
eosinophil numbers in BALF over time ([5]; 100 mg/kg IP, as early as 24 h post injection, up to 72 h): decreased
inhibition of airway inflammation ([5]; single IP administration, 10, 50 or 100 mg/kg, BALF 48 h): dose-dependent manner
1D NMR signals of the compound in the presence of the protein (hTSLP): significantly broadened
1D NMR signals of the compound in the presence of the protein (carbonic anhydrase): no signal broadening
1D NMR signals of the compound in the presence of the protein (hTSLPR): no signal broadening
airway inflammation [6]: reduce
skin severity scores [7]: lower
